Source: PubChem BioAssay AID1963866 (Molecular Pharmacology Branch, DTP, NCI, 2024)

System: PDC KRAS tumor spheroids with HUVEC/MSC, viability
Experiment: Anticancer human tumor 349418-098-R-PDC patient-derived lung adenocarcinoma cell line growth inhibition [KRAS2]
Settings: for IC50: curve of first compound; for viability, T/C: stronger effect = lower value
In short: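 KRAS-mutant tumor cells were grown as spheroids with HUVEC endothelial cells and human MSCs as stroma. Targeted agents were tested alone and with KRAS pathway inhibitors. Doses started at or near clinical Cmax, or 10 microM, descending half-log.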

[1] = second compound 0.1 µM, first compound 0.000316 µM
[2] = second compound 0.1 µM, first compound 0.001 µM
[3] = second compound 0.1 µM, first compound 0.00316 µM
[4] = second compound 0.1 µM, first compound 0.01 µM
[5] = second compound 0.1 µM, first compound 0.0316 µM
[6] = second compound 0.316 µM, first compound 0.000316 µM
[7] = second compound 0.316 µM, first compound 0.001 µM
[8] = second compound 0.316 µM, first compound 0.00316 µM
[9] = second compound 0.316 µM, first compound 0.01 µM
[10] = second compound 0.316 µM, first compound 0.0316 µM
[11] = second compound 1 µM, first compound 0.000316 µM
[12] = second compound 1 µM, first compound 0.001 µM
[13] = second compound 1 µM, first compound 0.00316 µM
[14] = second compound 1 µM, first compound 0.01 µM
[15] = second compound 1 µM, first compound 0.0316 µM
[16] = second compound 3.16 µM, first compound 0.000316 µM
[17] = second compound 3.16 µM, first compound 0.001 µM
[18] = second compound 3.16 µM, first compound 0.00316 µM
[19] = second compound 3.16 µM, first compound 0.01 µM
[20] = second compound 3.16 µM, first compound 0.0316 µM
[21] = second compound 10 µM, first compound 0.000316 µM
[22] = second compound 10 µM, first compound 0.001 µM
[23] = second compound 10 µM, first compound 0.00316 µM
[24] = second compound 10 µM, first compound 0.01 µM
[25] = second compound 10 µM, first compound 0.0316 µM
[26] = second compound 0.1 µM, first compound 0.1 µM
[27] = second compound 0.316 µM, first compound 0.1 µM
[28] = second compound 1 µM, first compound 0.1 µM
[29] = second compound 3.16 µM, first compound 0.1 µM
[30] = second compound 10 µM, first compound 0.1 µM
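Note: spheroids exposed to compounds for seven days before readout.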

CC(=O)Nc1cccc(-n2c(=O)n(C3CC3)c(=O)c3c(Nc4ccc(I)cc4F)n(C)c(=O)c(C)c32)c1 + CC1OCC2(CCN(c3cnc(Sc4ccnc(N)c4Cl)c(N)n3)CC2)C1N
IC50 (second compound 0.1 µM): < 0.1 nM
IC50 (second compound 0.316 µM): < 0.1 nM
IC50 (second compound 1 µM): < 0.1 nM
IC50 (second compound 3.16 µM): < 0.1 nM
IC50 (second compound 10 µM): < 0.1 nM
viability, T/C (second compound 0.1 µM, first compound 0.0001 µM): 25%
viability, T/C [1]: 10.6%
viability, T/C [2]: 8.26%
viability, T/C [3]: 7.14%
viability, T/C [4]: 6.71%
viability, T/C [5]: 4.89%
viability, T/C (second compound 0.316 µM, first compound 0.0001 µM): 13.9%
viability, T/C [6]: 9.13%
viability, T/C [7]: 6.31%
viability, T/C [8]: 6.44%
viability, T/C [9]: 5.73%
viability, T/C [10]: 4.97%
viability, T/C (second compound 1 µM, first compound 0.0001 µM): 12.5%
viability, T/C [11]: 6.75%
viability, T/C [12]: 5.3%
viability, T/C [13]: 5.39%
viability, T/C [14]: 5.41%
viability, T/C [15]: 4.31%
viability, T/C (second compound 3.16 µM, first compound 0.0001 µM): 16.2%
viability, T/C [16]: 6.1%
viability, T/C [17]: 5.56%
viability, T/C [18]: 4.05%
viability, T/C [19]: 3.76%
viability, T/C [20]: 3.53%
viability, T/C (second compound 10 µM, first compound 0.0001 µM): 18.9%
viability, T/C [21]: 6.01%
viability, T/C [22]: 3.71%
viability, T/C [23]: 3.71%
viability, T/C [24]: 3.6%
viability, T/C [25]: 3.62%

CC(C)n1nc(-c2ccc3oc(N)nc3c2)c2c(N)ncnc21 + CC1OCC2(CCN(c3cnc(Sc4ccnc(N)c4Cl)c(N)n3)CC2)C1N
IC50 (second compound 0.1 µM): 1.04 nM
IC50 (second compound 0.316 µM): 0.866 nM
IC50 (second compound 1 µM): 0.926 nM
IC50 (second compound 3.16 µM): 0.929 nM
IC50 (second compound 10 µM): 0.95 nM
viability, T/C [1]: 88.6%
viability, T/C [2]: 51.3%
viability, T/C [3]: 12.7%
viability, T/C [4]: 7.28%
viability, T/C [5]: 6.47%
viability, T/C [26]: 6.12%
viability, T/C [6]: 84.3%
viability, T/C [7]: 45.1%
viability, T/C [8]: 13.2%
viability, T/C [9]: 6.85%
viability, T/C [10]: 5.49%
viability, T/C [27]: 5.49%
viability, T/C [11]: 87%
viability, T/C [12]: 47.4%
viability, T/C [13]: 15.5%
viability, T/C [14]: 7.37%
viability, T/C [15]: 5.67%
viability, T/C [28]: 5.72%
viability, T/C [16]: 66.7%
viability, T/C [17]: 48.9%
viability, T/C [18]: 13.8%
viability, T/C [19]: 7.85%
viability, T/C [20]: 6.12%
viability, T/C [29]: 5.21%
viability, T/C [21]: 64.2%
viability, T/C [22]: 49.4%
viability, T/C [23]: 15%
viability, T/C [24]: 7.11%
viability, T/C [25]: 5.4%
viability, T/C [30]: 4.86%

CC1(C)CCC(CN2CCN(c3ccc(C(=O)NS(=O)(=O)c4ccc(NCC5CCOCC5)c([N+](=O)[O-])c4)c(Oc4cnc5[nH]ccc5c4)c3)CC2)=C(c2ccc(Cl)cc2)C1 + CC1OCC2(CCN(c3cnc(Sc4ccnc(N)c4Cl)c(N)n3)CC2)C1N
IC50 (second compound 0.1 µM): 1800 nM
IC50 (second compound 0.316 µM): 1730 nM
IC50 (second compound 1 µM): 1780 nM
IC50 (second compound 3.16 µM): 1580 nM
IC50 (second compound 10 µM): 1250 nM
viability, T/C [5]: 105%
viability, T/C [26]: 97.1%
viability, T/C (second compound 0.1 µM, first compound 0.316 µM): 91.4%
viability, T/C (second compound 0.1 µM, first compound 1 µM): 89.1%
viability, T/C (second compound 0.1 µM, first compound 3.16 µM): 12.3%
viability, T/C (second compound 0.1 µM, first compound 10 µM): 3.59%
viability, T/C [10]: 95.4%
viability, T/C [27]: 94.4%
viability, T/C (second compound 0.316 µM, first compound 0.316 µM): 89.6%
viability, T/C (second compound 0.316 µM, first compound 1 µM): 84.5%
viability, T/C (second compound 0.316 µM, first compound 3.16 µM): 12.2%
viability, T/C (second compound 0.316 µM, first compound 10 µM): 3.15%
viability, T/C [15]: 94.9%
viability, T/C [28]: 97.9%
viability, T/C (second compound 1 µM, first compound 0.316 µM): 88.2%
viability, T/C (second compound 1 µM, first compound 1 µM): 87.1%
viability, T/C (second compound 1 µM, first compound 3.16 µM): 13.3%
viability, T/C (second compound 1 µM, first compound 10 µM): 3.05%
viability, T/C [20]: 87.4%
viability, T/C [29]: 85.5%
viability, T/C (second compound 3.16 µM, first compound 0.316 µM): 77.9%
viability, T/C (second compound 3.16 µM, first compound 1 µM): 71.8%
viability, T/C (second compound 3.16 µM, first compound 3.16 µM): 17.7%
viability, T/C (second compound 3.16 µM, first compound 10 µM): 2%
viability, T/C [25]: 76%
viability, T/C [30]: 82.1%
viability, T/C (second compound 10 µM, first compound 0.316 µM): 63.2%
viability, T/C (second compound 10 µM, first compound 1 µM): 60.8%
viability, T/C (second compound 10 µM, first compound 3.16 µM): 15.6%
viability, T/C (second compound 10 µM, first compound 10 µM): 0.69%
